We go through two compounds from US20160058722A1, “METHOD FOR IMPROVING THE OXYGEN-RELEASING ABILITY OF HEMOGLOBIN TO ORGANS AND PERIPHERAL TISSUES IN HUMAN BODIES” (NATIONAL SUN YAT-SEN UNIVERSITY, priority 2014, published 2016).

The target of the test is hemoglobin (Homo sapiens, UniProt P68871+P69905). In words: resonance Raman spectroscopy of oxygenated hemoglobin, percentage of "R" state. The class given is biochemical. The settings on record: varying mole ratio to hemoglobin tetramer, 532 nm excitation, oxygen atmosphere. The text has this:
In order to evaluate the effect of ferulic acid on stabilizing the oxygenated hemoglobin in the low oxygen affinity “T” state, compounds including 2,3-BPG (group A0) and ferulic acid (group A1) are mixed with hemoglobin as a function of their mole ratio to hemoglobin, followed by the resonance Raman spectroscopy measurements at 532 nm excitation wavelength under the oxygen atmosphere. The percentages of the high oxygen affinity “R” state for hemoglobin treated with 2,3-BPG (shown in FIG. 2a, as reference) and ferulic acid (shown in FIG. 2b) are analyzed from the resonance Raman spectroscopy measurements. In more specific, the percentage of high oxygen affinity “R” state for each treated hemoglobin was obtained by fitting a simulated spectrum comprised of adjustable weighing factors of the T and R states of pure hemoglobin to the obtained resonance Raman spectrum of treated hemoglobin.

Chain of hemoglobin (P69905 2-142): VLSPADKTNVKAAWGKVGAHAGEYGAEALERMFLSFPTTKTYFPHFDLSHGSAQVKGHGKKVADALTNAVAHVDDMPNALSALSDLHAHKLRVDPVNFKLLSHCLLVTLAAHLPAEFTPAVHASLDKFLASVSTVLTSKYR
Chain of hemoglobin (P68871 2-147): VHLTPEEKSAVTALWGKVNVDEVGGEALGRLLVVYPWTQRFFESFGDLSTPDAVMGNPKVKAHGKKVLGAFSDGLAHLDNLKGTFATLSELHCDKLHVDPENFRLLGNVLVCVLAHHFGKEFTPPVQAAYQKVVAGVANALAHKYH

As to `O=C(O)C(COP(=O)(O)O)OP(=O)(O)O` (centres unmarked) [2,3-BPG, 2,3-bisphosphoglycerate], the “"R" state suppression efficiency” value is recorded as “about 20%”.
Take `COc1cc(/C=C/C(=O)O)ccc1O` [ferulic acid]: the “"R" state suppression efficiency” value was “higher than 50%”.
